Measured values taken from ChEMBL document CHEMBL4304749, “Covalent Inhibitors of Protein-Protein Interactions Targeting Lysine, Tyrosine, or Histidine Residues” (J Med Chem, 2019).
Square brackets hold non-standard residues; d marks the D form. Peptide text beside a SMILES is read from it. Tyr(SO2F) = N[C@@H](Cc1ccc(OS(=O)(=O)F)cc1)C(=O)O; NMeA = CN[C@@H](C)C(=O)O

Legend:
[1] = Half-life of the compound at pH 7.2 by NMR spectroscopy; format: physicochemical
[2] = Stability in mouse plasma at 200 uM by LC-MS method; format: ADME, cell-free
[3] = Half-life in 50 mM phosphate buffer of pH 7.5 at 37 degreeC by 1H NMR method; format: physicochemical; conditions: for half-life: phosphate buffer; for t1/2: buffer
[4] = Aqueous stability of the compound in simulated gastric fluid at pH 1.5 by NMR spectroscopy
[5] = Half-life in mouse plasma at 200 uM by LC-MS method; format: ADME, cell-free
[6] = Drug degradation in mouse plasma at 200 uM after 40 min by LC-MS method; format: ADME, cell-free; conditions: read-out: Drug degradation
[7] = Aqueous stability of the compound pH 7.2 by NMR spectroscopy; format: physicochemical; conditions: buffer
[8] = target: T1, E3 ubiquitin-protein ligase XIAP (Homo sapiens, UniProt P98170)
[9] = target: T1, E3 ubiquitin-protein ligase XIAP; remark: listed apart in the source
[10] = target: T1, E3 ubiquitin-protein ligase XIAP; assay: biochemical
SK-OV-3 [11] = assay: Induction of apoptosis in human SKOV3 cells assessed caspase-3 activation after 24 hrs by IncuCyte S3 live-cell analysis; format: functional, cell-based; conditions: SK-OV-3, 24 h
[12] = target: T1, E3 ubiquitin-protein ligase XIAP; assay: biochemical; remark: listed apart in the source
SK-OV-3 [13] = assay: Induction of apoptosis in human SKOV3 cells assessed caspase-3 activation after 48 hrs by IncuCyte S3 live-cell analysis; format: functional, cell-based; conditions: SK-OV-3, 48 h

T1 sequence (P98170 whole entry): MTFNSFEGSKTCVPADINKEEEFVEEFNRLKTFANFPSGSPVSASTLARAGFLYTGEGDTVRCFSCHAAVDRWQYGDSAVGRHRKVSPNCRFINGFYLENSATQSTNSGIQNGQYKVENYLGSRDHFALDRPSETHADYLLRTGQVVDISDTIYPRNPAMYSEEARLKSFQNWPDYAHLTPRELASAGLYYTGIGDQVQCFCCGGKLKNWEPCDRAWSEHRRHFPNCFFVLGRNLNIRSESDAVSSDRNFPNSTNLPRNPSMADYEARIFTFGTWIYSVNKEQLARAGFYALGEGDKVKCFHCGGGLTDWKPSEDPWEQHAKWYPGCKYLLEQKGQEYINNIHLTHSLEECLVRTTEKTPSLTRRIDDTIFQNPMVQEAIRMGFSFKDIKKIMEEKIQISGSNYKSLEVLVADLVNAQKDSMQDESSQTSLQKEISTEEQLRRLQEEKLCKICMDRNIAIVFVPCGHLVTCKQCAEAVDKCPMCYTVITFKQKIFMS

## CN[C@@H](C)C(=O)N[C@@H](CNC(=O)c1ccc(S(=O)(=O)F)cc1)C(=O)N1CCC[C@H]1C(=O)N[C@@H](Cc1ccccc1)C(N)=O
[1]
  half-life: 0.5 h
[2]
  Stability: Unstable
[3]
  half-life: 0.5 h
[4]
  Stability: Stable

## CN[C@@H](C)C(=O)N[C@@H](Cc1ccc(S(=O)(=O)O)cc1)C(=O)N1CCC[C@H]1C(=O)N[C@@H](Cc1ccccc1)C(N)=O
[3]
  t1/2: > 5 h

## CN[C@@H](C)C(=O)N[C@@H](Cc1ccc(OS(=O)(=O)F)cc1)C(=O)N1CCC[C@H]1C(=O)N[C@@H]1CCc2c(F)cccc21
[5]
  half-life at 200 µM: > 2 h

## CN[C@@H](C)C(=O)N[C@@H](CNCc1ccc(S(=O)(=O)F)cc1)C(=O)N1CCC[C@H]1C(=O)N[C@@H]1CCc2c(F)cccc21
[6]
  metabolised at 40 min, 200 µM: 100%
[5]
  half-life at 200 µM: 0.25 h

## CN[C@@H](C)C(=O)N[C@@H](CNCc1ccc(S(=O)(=O)F)cc1)C(=O)N1CCC[C@H]1C(=O)N[C@@H](Cc1ccccc1)C(N)=O
[7]
  Stability: Stable
[3]
  half-life: 2.5 h
[4]
  Stability: Stable

## CN[C@@H](C)C(=O)N[C@@H](Cc1ccc(OS(=O)(=O)F)cc1)C(=O)N1CCC[C@H]1C(=O)NC1Cc2ccccc2C1
[5]
  half-life at 200 µM: > 2 h

## CC(C)[C@H](NC(=O)[C@H](C)N)C(=O)N1CCC[C@H]1C(=O)N[C@@H](Cc1ccccc1)C(=O)O (H-AVPF-OH)
[8]
  ΔTm: 17 °C
[9]
  ΔTm: 5.5 °C
[3]
  half-life: > 5 h

## CN[C@@H](C)C(=O)N[C@@H](Cc1ccc(OS(=O)(=O)F)cc1)C(=O)N1CCC[C@H]1C(=O)N[C@@H](Cc1ccccc1)C(N)=O (H-[NMeA][Tyr(SO2F)]PF-NH2)
[7]
  Stability: Stable
[3]
  t1/2: > 5 h
[4]
  Stability: Stable

## CN[C@@H](C)C(=O)N[C@H](C(=O)N1CCC[C@H]1C(=O)Nc1snnc1-c1ccccc1)C1CCCCC1 [GDC-0152]
[10]
  IC50: 21 nM
[8]
  ΔTm: 19.5 °C
[9]
  ΔTm: 15 °C
SK-OV-3 [11]
  EC50: 3 nM
[12]
  IC50: 21 nM
[5]
  half-life at 200 µM: 1 h
SK-OV-3 [13]
  EC50: 2.5 nM

## CN[C@@H](C)C(=O)N[C@H](C(=O)N1CCC[C@H]1c1nc(C(=O)c2ccc(F)cc2)cs1)C1CCCCC1 [LCL-161]
SK-OV-3 [11]
  EC50: 3 nM
[5]
  half-life at 200 µM: > 2 h
SK-OV-3 [13]
  EC50: 1 nM
